US6469132B1, “Diblock copolymer and use thereof in a micellar drug delivery system” (McGill University, priority 1999, dated 2002)
Several values for one entry are separate records, joined by “and”; a condition that tells them apart may be missing. Equal values may be shown once.

Experiments:
[1] = system: PC 12 rat pheochromocytoma cells; assay: Cell differentiation assay: neurite-like outgrowth; assay type: cell-based
Method: In each case, the degree of neurite-like outgrowth was taken to be 100% in the control wells of untreated PC 12 cells. The degree of differentiation in cell wells in the presence of NGF and/or drug is expressed as a percentage relative to 100% for the control.
PC 12 cells were plated in 24 well plates at 37° C. in 5% CO2 and incubated in DMEM supplemented with 5% fetal bovine serum and the treatments described below. Neurite-like outgrowth in PC 12 cells was detected after a 48 hour period using a Nikon light microscope. For each data point 5 fields of 250-300 cells/well were analyzed. For the quantitation of neurite-like outgrowth the PC 12 cells were considered to have outgrowth if their processes were longer than the length of the diameter of the cell.
A range of concentrations of either NGF (0.1 to 50 ng/mL), FK506 (1 to 500 nM) or L,685-818 (1 to 500 nM) alone or combinations of 0.5 or 5 ng/mL of NGF with either FK506 (5 to 500 nM) or L-685,818 (50 nM to 10 μM), were incubated with the PC 12 cells for a 48 hour incubation period. The wells with untreated cells were used as controls.
The unfiltered solution of the micelle incorporated drug was added to the cell wells at different concentrations: a 10 μL aliquot of a FK506-micelle solution was added to each 0.5 mL cell well. The 10 μL aliquot was produced by diluting the 1.1×10^−5 moles/L FK506-PCL20-b-PEO44 micelle (1% w/w) stock solution. The final concentration of FK506 in the cell well was made to range from […]. In the same manner, a 10 uL aliquot of the L-685,818 micelle solution was added to each 0.5 mL cell well, such that final concentration in the well was made to range from 10 nM to 1 μM. In each case, 5 ng/mL NGF was also added to each cell well. Several controls were also used where the cells were treated with 5 ng/mL of NGF alone, 1% (w/w) PCL20-b-PEO44 micelles alone, 1% (w/w) PCL20-b-PEO44 micelles containing 1 nM FK 506 without NGF or 1% (w/w) PCL20-b-PEO44 micelles containing 10 nM L-685,818.

[2] = Partition coefficient for pyrene between PCL-b-PEO micelles and water (fluorescence I3/I1 method); assay type: physicochemical; details: extrapolation to 100% water content; PCL-b-PEO (20-b-44) micelles
Method: The degree of non-covalent incorporation of physical entrapment of a hydrophobic drug into a micelle is determined by the partition coefficient of the drug between the micellar core and the surrounding aqueous medium. The affinity of the PCL-b-PEO micelles for lipophilic compounds was assayed by the determination of the Kv for the hydrophobic model compound, pyrene, between the PCL-b-PEO micelles and water. This method has been previously used to determine the Kv of pyrene between polystyrene-b-polyacrylic acid micelles and water. This fluorescence method is based on pyrene's sensitivity to the hydrophobicity of its microenvironment. […]
The fluorescence method used to determine the partition coefficient for pyrene between a mixed water/DMF solvent mixture (60-90% water content) and block copolymer micelles (concentration PCL20-b-PEO44 ranges from 1×10^−6 to 1×10^−2 g/g), at 25° C., has been described in detail elsewhere (Zhao, J. et al. (1997) Macromolecules, 30:7143-7150). […] Briefly, the intensity ratio of vibrational band three to vibrational band one (I3/I1) in the fluorescence emission spectrum of pyrene reflects the polarity of the surrounding environment of the probe molecules. […]
Steady-state fluorescent spectra were measured using a SPEX Fluorolog 2 spectrometer in the right-angle geometry (90° collecting optics). […] For fluorescence emission spectra, λεξ was 339 nm. […]

PC 12 cells = assay: Cell uptake of pyrene incorporated micelles; assay type: cell-based, rat; details: 390 nm, zero time = 1, PCL14-b-PEO44 micelles
Method: The in vitro biocompatibility of the PCL-b-PEO micelles (14-b-44, 20-b-44) was tested by incubating the micelles with a wide range of cell lines for both 24-hour and 48-hour periods. The Trypan blue and Alamar blue survival assays were then used to quantify the survival rates in the presence of the PCL-b-PEO micelles. The capability of the PCL-b-PEO micelle system to deliver a hydrophobic compound was first tested in vitro using pyrene as a model compound. The pyrene incorporated PCL-b-PEO micelles were incubated with PC 12 cells over a 24-hour period. At 0, 4, 8 and 24 hours, samples of the supernatant were studied by fluorescence in order to determine the quantity of pyrene remaining in the supernatant at each time point. Likewise, at each time point, cells were isolated and their fluorescence was examined under the fluorescence microscope in order to determine if the decrease in the fluorescence within the supernatant was accompanied by an increase in fluorescence within the cells.
Pyrene incorporated micelles were prepared such that a total of 2×10^−7 moles/L of pyrene had been added to the 1% (w/w) micelle (PCL14-b-PEO44) solution, An aliquot of the micelle solution was incubated with PC 12 cells cultured in DMEM at 37° C., 5% CO2. At time 0, and 4, 8 and 24 hours, the fluorescence intensity (Perkin Elmer LS 50) of the supernatant was measured at 390 nm to determine the amount of pyrene remaining in the supernatant. Controls consisting of medium or medium and micelles alone were also measured. Following the removal of the aliquot of supernatant at each time point, the remaining supernatant was removed and the cells were washed three times with 100 uL of phosphate buffer saline. The cells were then gently scraped and fixed with aquamount on a slide and analyzed using a fluorescence microscope (Olympus BH-2).

[3] = polystyrene-b-polyacrylic acid micelles; Zhao et al. 1997; cited from earlier work
[4] = drug alone 1 to 500 nM, 48 h, untreated control = 100%

In the case of `C=CC[C@@H]1/C=C(\C)C[C@H](C)C[C@H](OC)[C@H]2O[C@@](O)(C(=O)C(=O)N3CCCC[C@H]3C(=O)O[C@H](/C(C)=C/[C@@H]3CC[C@@H](O)[C@H](OC)C3)[C@H](C)[C@@H](O)CC1=O)[C@H](C)C[C@@H]2OC` [FK506], the “degree of neurite-like outgrowth” value [1, 4] is reported as ~100%, the “degree of neurite-like outgrowth” value ([1]; free FK506 1-100 nM with 5 ng/mL NGF, 48 h) is reported as 220-380% and the “dose adequate to potentiate neurite-like outgrowth” value ([1]; in vitro, PC12 cell cultures) is reported as 1 nM.

In the case of `CC[C@@H]1/C=C(\C)[C@@H](O)[C@H](C)C[C@H](OC)[C@H]2O[C@@](O)(C(=O)C(=O)N3CCCC[C@H]3C(=O)O[C@H](/C(C)=C/[C@@H]3CC[C@@H](O)[C@H](OC)C3)[C@H](C)[C@@H](O)CC1=O)[C@H](C)C[C@@H]2OC` [L-685,818], the “degree of neurite-like outgrowth” value [1, 4] is reported as ~100%, the “effect of drug concentration on degree of differentiation” value ([1]; drug alone, no NGF, 48 h) is reported as “no effect on the degree of differentiation” and the “potentiation of the effect of NGF on neurite-like outgrowth” value ([1]; with 5 ng/mL NGF, PC 12 cell cultures) is reported as “potentiate the effect of NGF on the outgrowth of PC 12 cells”.

In the case of `c1cc2ccc3cccc4ccc(c1)c2c34` [pyrene], the “partition coefficient (Kv) for pyrene between PCL-b-PEO micelles and water” value [2] is reported as ~10^2, the “relative fluorescence intensity of pyrene in supernatant” value (“relative fluorescence intensity” below) (PC 12 cells; after 4 hours) is reported as 0.70 (±0.05) and the “relative fluorescence intensity” value (PC 12 cells; after 8 hours) is reported as 0.60 (±0.05). The “relative fluorescence intensity” value (PC 12 cells; after 24 hours) was 0.55 (±0.05) and the “partition coefficient for pyrene between PS-b-PAA micelles and water” value [3] was ~10^5.

In the case of NGF: nerve growth factor, the “degree of neurite-like outgrowth” value ([1]; 5 ng/mL NGF alone, 48 h, untreated control = 100%) is reported as 160±5% and 180±6% and the “degree of neurite-like outgrowth” value ([1]; NGF alone 0.1 to 50 ng/mL, 48 h, untreated control = 100%) is reported as 110-260%.
